# Reference: ChEMBL document CHEMBL5356976, “Discovery of an adjuvant that resensitizes polymyxin B-resistant bacteria” (2024)
# The source made the active and inactive calls. No cut-off for these calls is given here. Bridge positions count the residues as written; N and C are the ends. Square brackets hold non-standard residues; d marks the D form. Peptide text beside a SMILES is read from it. * marks the point of attachment. X1 = CC[C@H](C)CCCCC(=O)*; Dab = NCC[C@H](N)C(=O)O
# Columns and labels:
# [1] = system: Cell membrane; assay: Induction of membrane permeabilization in polymyxin-B resistant Escherichia coli MG1655 assessed as fluorescence increase incubated for 10 mins in presence of polymyxin B by DiSC3(5) dye based fluorescence spectrometer analysis; format: subcellular
# [2] = system: Escherichia coli; assay: Synergistic antibacterial activity against polymyxin B resistant Escherichia coli MG1655 assessed as fold reduction in polymyxin B MIC by checkerboard assay; format: functional
# [3] = system: Cell membrane; assay: Induction of membrane permeabilization in polymyxin-B resistant Escherichia coli MG1655 assessed as increase in fluorescence after 4 mins by DiSC3(5) staining based fluorescence spectrometer analysis (reference value: 8.5); format: subcellular
# [4] = system: Escherichia coli; assay: Additive antibacterial activity against Escherichia coli MG1655 assessed as fold reduction in polymyxin B MIC at 100 mg/L by checkerboard assay; format: functional
# [5] = system: Staphylococcus aureus; assay: Synergistic antibacterial activity against Staphylococcus aureus ATCC 29213 assessed as fold reduction in melittin activity at 75 mg/l by checkerboard assay; format: functional
# [6] = system: Cell membrane; assay: Induction of membrane permeabilization in polymyxin-B resistant Escherichia coli MG1655 assessed as fluorescence increase incubated for 10 mins in presence of triton X-100 by DiSC3(5) dye based fluorescence spectrometer analysis; format: subcellular
# [7] = system: Escherichia coli; assay: Synergistic antibacterial activity against polymyxin B resistant Escherichia coli MG1655 assessed as fractional inhibitory concentration by checkerboard assay; format: functional
# [8] = system: Cell membrane; assay: Induction of membrane permeabilization in polymyxin-B resistant Escherichia coli MG1655 assessed as increase in fluorescence by DiSC3(5) staining based fluorescence spectrometer analysis (reference value: 8.5); format: subcellular
# [9] = system: Escherichia coli; assay: Antibacterial activity against polymyxin-B resistant Escherichia coli MG1655; format: functional
# [10] = system: Escherichia coli; assay: Antibacterial activity against resistant Escherichia coli MG1655; format: functional
# [11] = system: Escherichia coli; assay: Antibacterial activity against Escherichia coli MG1655; format: functional
# [12] = system: Escherichia coli; assay: Antibacterial activity against Escherichia coli MG1655 in presence of 50 mg/l perforone; format: functional
# [13] = system: Escherichia coli; assay: Antibacterial activity against Escherichia coli MG1655 in presence of 6.25 mg/l perforone; format: functional
structure (smiles),measurement,setting,value
COc1c2c(nc3occc13)[C@@]1(OC)CCC(C)(C)O[C@@]1(O)CC2,Activity,[1],inactive
same,fold change (FC),[2],16
same,Flu intensity,[3],19.7 a.u.
same,fold change (FC),[4],2
same,fold change (FC),[5],2
same,Activity,[6],inactive
same,FIC,[7],0.19
same,Flu intensity,[8],29.2 a.u.
CC(C)C[C@@H]1NC(=O)[C@@H](Cc2ccccc2)NC(=O)[C@H](CCN)NC(=O)[C@@H](NC(=O)[C@H](CCN)NC(=O)[C@@H](NC(=O)[C@@H](N)CCN)[C@@H](C)O)CCNC(=O)[C@H]([C@@H](C)O)NC(=O)[C@H](CCN)NC(=O)[C@H](CCN)NC1=O (H-[Dab]T[Dab][Dab][Dab][dF]L[Dab][Dab]T; lactam 4-C),Activity,[9],Active
CC[C@H](C)CCCCC(=O)N[C@@H](CCN)C(=O)N[C@H](C(=O)N[C@@H](CCN)C(=O)N[C@H]1CCNC(=O)[C@H]([C@@H](C)O)NC(=O)[C@H](CCN)NC(=O)[C@H](CCN)NC(=O)[C@H](CC(C)C)NC(=O)[C@@H](Cc2ccccc2)NC(=O)[C@H](CCN)NC1=O)[C@@H](C)O (X1-[Dab]T[Dab][Dab][Dab][dF]L[Dab][Dab]T; lactam 4-C),MIC,[9],256 µg/mL
same,MIC,[10],256 µg/mL
same,MIC,[11],0.5 µg/mL
same,MIC,[12],16 µg/mL
same,MIC,[13],2 µg/mL
CC[C@H]1OC(=O)[C@H](C)[C@@H](O[C@H]2C[C@@](C)(OC)[C@@H](O)[C@H](C)O2)[C@H](C)[C@@H](O[C@@H]2O[C@H](C)C[C@H](N(C)C)[C@H]2O)[C@](C)(O)C[C@@H](C)CN(C)[C@H](C)[C@@H](O)[C@]1(C)O [AZITHROMYCIN],MIC,[10],128 µg/mL
same,MIC,[11],4 µg/mL
C[C@H]1c2cccc(O)c2C(=O)C2=C(O)[C@]3(O)C(=O)C(C(N)=O)=C(O)[C@@H](N(C)C)[C@@H]3[C@@H](O)[C@@H]21.O [DOXYCYCLINE],MIC,[10],60 µg/mL
same,MIC,[11],0.25 µg/mL
